Experimental findings from ChEMBL document CHEMBL5331066, “Structure-guided design of novel HEPT analogs with enhanced potency and safety: From Isopropyl-HEPTs to Cyclopropyl-HEPTs” (Eur J Med Chem, 2023) are described below.

One data set deals with Human immunodeficiency virus 1. Put plainly: Antiviral activity against wild type HIV1 IIIB infected in human MT4 cells assessed as protection against virus-induced cytopathicity. Type of data set: functional, organism-based. The settings on record: Human immunodeficiency virus 1, IIIB. (Damage to the host cells serves as the signal in cytopathic effect assays.)
Consider `O=c1[nH]c(=O)n(COCc2ccccc2)c(Sc2cccc(F)c2)c1C1CC1`, for which the EC50 was determined as 25 nM.

With `O=c1[nH]c(=O)n(COCc2ccccc2)c(Sc2ccccc2Cl)c1C1CC1`, the EC50 amounted to 53 nM.

For `O=c1[nH]c(=O)n(COCc2ccccc2)c(Sc2c(F)cccc2F)c1C1CC1`, the concentration giving a half-maximal response (EC50) was 340 nM.

`COc1ccc(Sc2c(C3CC3)c(=O)[nH]c(=O)n2COCc2ccccc2)c(OC)c1`: the EC50 was over 30900 nM.

For `CC(C)c1c(Sc2cccc3ccccc23)n(COCc2ccccc2)c(=O)[nH]c1=O`, the EC50 was 63 nM.

Turning to `COc1cc(OC)cc(Sc2c(C3CC3)c(=O)[nH]c(=O)n2COCc2ccccc2)c1`, the EC50 amounted to 770 nM.

On to `O=c1[nH]c(=O)n(COCc2ccccc2)c(Sc2cccc3ccccc23)c1C1CC1`, for which the EC50 was found to be 840 nM.

Regarding `Cc1c(Sc2ccccc2)n(COCCO)c(=O)[nH]c1=O` [HEPT], the EC50 was 7000 nM.

With `Cc1ccnc2c1NC(=O)c1cccnc1N2C1CC1` [NEVIRAPINE], the EC50 amounted to 86 nM.

Regarding `Cc1cn([C@H]2C[C@H](N=[N+]=[N-])[C@@H](CO)O2)c(=O)[nH]c1=O` [ZIDOVUDINE], the EC50 turned out to be 28 nM.

Another data set addresses Human immunodeficiency virus type 1 reverse transcriptase (Human immunodeficiency virus 1, UniProt Q72547). The data set is described as follows: Inhibition of wild type HIV-1 reverse transcriptase assessed as inhibition of biotin deoxyuridine triphosphate incorporation into […].
Conditions: not given
Regarding `O=c1[nH]c(=O)n(COCc2ccccc2)c(Sc2cccc(F)c2)c1C1CC1`, the IC50 was 40 nM.

For the compound `O=c1[nH]c(=O)n(COCc2ccccc2)c(Sc2ccccc2Cl)c1C1CC1`, the IC50 worked out at 90 nM.

`O=c1[nH]c(=O)n(COCc2ccccc2)c(Sc2c(F)cccc2F)c1C1CC1`: the IC50 came to 720 nM.

For the compound `Cc1cn([C@H]2C[C@H](N=[N+]=[N-])[C@@H](CO)O2)c(=O)[nH]c1=O` [ZIDOVUDINE], the IC50 amounted to 2200 nM.

In another data set the test system is Human immunodeficiency virus 1. Put plainly: Antiviral activity against HIV1 harboring L100I mutant infected in human MT4 cells assessed as protection against virus-induced cytopathicity. Type of data set: functional, organism-based. The conditions noted are these: Human immunodeficiency virus 1, MT4.
As to `O=c1[nH]c(=O)n(COCc2ccccc2)c(Sc2cccc(F)c2)c1C1CC1`, the EC50 was determined as 250 nM.

In the case of `O=c1[nH]c(=O)n(COCc2ccccc2)c(Sc2ccccc2Cl)c1C1CC1`, the EC50 was determined as 630 nM.

On to `O=c1[nH]c(=O)n(COCc2ccccc2)c(Sc2c(F)cccc2F)c1C1CC1`, for which the EC50 is 2010 nM.

With `COc1cc(OC)cc(Sc2c(C3CC3)c(=O)[nH]c(=O)n2COCc2ccccc2)c1`, the EC50 amounted to 1790 nM.

Consider `O=c1[nH]c(=O)n(COCc2ccccc2)c(Sc2cccc3ccccc23)c1C1CC1`, for which the EC50 amounted to 23100 nM.

As for `Cc1ccnc2c1NC(=O)c1cccnc1N2C1CC1` [NEVIRAPINE], the concentration for a half-maximal effect (EC50) amounted to 1280 nM.

`Cc1cn([C@H]2C[C@H](N=[N+]=[N-])[C@@H](CO)O2)c(=O)[nH]c1=O` [ZIDOVUDINE]: the EC50 came to 16 nM.

Another data set relates to Human immunodeficiency virus 1. The data set is described as follows: Antiviral activity against HIV1 harboring Y188L mutant infected in human MT4 cells assessed as protection against virus-induced cytopathicity. Type of data set: functional, organism-based. The settings on record: Human immunodeficiency virus 1, MT4.
Take `O=c1[nH]c(=O)n(COCc2ccccc2)c(Sc2cccc(F)c2)c1C1CC1`: the EC50 is over 38800 nM.

Regarding `O=c1[nH]c(=O)n(COCc2ccccc2)c(Sc2ccccc2Cl)c1C1CC1`, the EC50 was over 27300 nM.

Turning to `O=c1[nH]c(=O)n(COCc2ccccc2)c(Sc2c(F)cccc2F)c1C1CC1`, the EC50 is over 29000 nM.

Take `COc1cc(OC)cc(Sc2c(C3CC3)c(=O)[nH]c(=O)n2COCc2ccccc2)c1`: the EC50 was over 29700 nM.

As to `O=c1[nH]c(=O)n(COCc2ccccc2)c(Sc2cccc3ccccc23)c1C1CC1`, the EC50 is over 177000 nM.

In the case of `Cc1ccnc2c1NC(=O)c1cccnc1N2C1CC1` [NEVIRAPINE], the EC50 is over 9510 nM.

As for `Cc1cn([C@H]2C[C@H](N=[N+]=[N-])[C@@H](CO)O2)c(=O)[nH]c1=O` [ZIDOVUDINE], the EC50 stood at 29 nM.

A further data set relates to Human immunodeficiency virus 1. The data set is described as follows: Antiviral activity against HIV1 harboring E138K mutant infected in human MT4 cells assessed as protection against virus-induced cytopathicity. Type of data set: functional, organism-based. The conditions noted are these: Human immunodeficiency virus 1, MT4.
Take `O=c1[nH]c(=O)n(COCc2ccccc2)c(Sc2cccc(F)c2)c1C1CC1`: the EC50 was 130 nM.

`O=c1[nH]c(=O)n(COCc2ccccc2)c(Sc2ccccc2Cl)c1C1CC1`: the EC50 came out at 430 nM.

`O=c1[nH]c(=O)n(COCc2ccccc2)c(Sc2c(F)cccc2F)c1C1CC1`: the EC50 stood at 1510 nM.

Regarding `COc1cc(OC)cc(Sc2c(C3CC3)c(=O)[nH]c(=O)n2COCc2ccccc2)c1`, the EC50 turned out to be 3070 nM.

As for `O=c1[nH]c(=O)n(COCc2ccccc2)c(Sc2cccc3ccccc23)c1C1CC1`, the EC50 stood at 31600 nM.

With `Cc1ccnc2c1NC(=O)c1cccnc1N2C1CC1` [NEVIRAPINE], the EC50 is 140 nM.

Another data set relates to Human immunodeficiency virus 1. Put plainly: Antiviral activity against HIV1 harboring K103 N mutant infected in human MT4 cells assessed as protection against virus-induced cytopathicity. The conditions noted are these: Human immunodeficiency virus 1, MT4. The class given is functional, organism-based.
Turning to `O=c1[nH]c(=O)n(COCc2ccccc2)c(Sc2cccc(F)c2)c1C1CC1`, the EC50 worked out at 2990 nM.

As to `O=c1[nH]c(=O)n(COCc2ccccc2)c(Sc2ccccc2Cl)c1C1CC1`, the EC50 amounted to 9140 nM.

With `O=c1[nH]c(=O)n(COCc2ccccc2)c(Sc2c(F)cccc2F)c1C1CC1`, the EC50 was over 29000 nM.

In the case of `COc1cc(OC)cc(Sc2c(C3CC3)c(=O)[nH]c(=O)n2COCc2ccccc2)c1`, the EC50 was over 29700 nM.

For the compound `O=c1[nH]c(=O)n(COCc2ccccc2)c(Sc2cccc3ccccc23)c1C1CC1`, the EC50 is over 177000 nM.

Consider `Cc1ccnc2c1NC(=O)c1cccnc1N2C1CC1` [NEVIRAPINE], for which the EC50 is 5330 nM.

As for `Cc1cn([C@H]2C[C@H](N=[N+]=[N-])[C@@H](CO)O2)c(=O)[nH]c1=O` [ZIDOVUDINE], the EC50 was determined as 26 nM.

System in a further data set: not listed separately
The data set is described as follows: Cytotoxicity against human MT4 cells assessed as reduction in cell viability. The class given is toxicity, cell-based.
Conditions: not given
Take `O=c1[nH]c(=O)n(COCc2ccccc2)c(Sc2cccc(F)c2)c1C1CC1`: the 50% cytotoxic concentration (CC50) came to 38800 nM.

As for `O=c1[nH]c(=O)n(COCc2ccccc2)c(Sc2ccccc2Cl)c1C1CC1`, the CC50 was 27300 nM.

Regarding `O=c1[nH]c(=O)n(COCc2ccccc2)c(Sc2c(F)cccc2F)c1C1CC1`, the CC50 amounted to 29000 nM.

As for `COc1ccc(Sc2c(C3CC3)c(=O)[nH]c(=O)n2COCc2ccccc2)c(OC)c1`, the CC50 came to 30900 nM.

Turning to `CC(C)c1c(Sc2cccc3ccccc23)n(COCc2ccccc2)c(=O)[nH]c1=O`, the CC50 came out at 34000 nM.

Turning to `COc1cc(OC)cc(Sc2c(C3CC3)c(=O)[nH]c(=O)n2COCc2ccccc2)c1`, the CC50 stood at 29700 nM.

For the compound `O=c1[nH]c(=O)n(COCc2ccccc2)c(Sc2cccc3ccccc23)c1C1CC1`, the CC50 was found to be 30700 nM.

Turning to `Cc1c(Sc2ccccc2)n(COCCO)c(=O)[nH]c1=O` [HEPT], the half-maximal cytotoxic concentration (CC50) was 740000 nM.

With `Cc1ccnc2c1NC(=O)c1cccnc1N2C1CC1` [NEVIRAPINE], the CC50 is over 9510 nM.

For `Cc1cn([C@H]2C[C@H](N=[N+]=[N-])[C@@H](CO)O2)c(=O)[nH]c1=O` [ZIDOVUDINE], the CC50 was over 7480 nM.

Another data set has as its system Human immunodeficiency virus 1. The data set is described as follows: Antiviral activity against HIV1 harboring Y181C mutant infected in human MT4 cells assessed as protection against virus-induced cytopathicity. The class given is functional, organism-based. The conditions noted are these: Human immunodeficiency virus 1, MT4.
For `O=c1[nH]c(=O)n(COCc2ccccc2)c(Sc2cccc(F)c2)c1C1CC1`, the EC50 was found to be 3360 nM.

On to `O=c1[nH]c(=O)n(COCc2ccccc2)c(Sc2ccccc2Cl)c1C1CC1`, for which the EC50 is 2940 nM.

Consider `O=c1[nH]c(=O)n(COCc2ccccc2)c(Sc2c(F)cccc2F)c1C1CC1`, for which the EC50 was over 29000 nM.

Consider `COc1cc(OC)cc(Sc2c(C3CC3)c(=O)[nH]c(=O)n2COCc2ccccc2)c1`, for which the EC50 was found to be 9630 nM.

As for `O=c1[nH]c(=O)n(COCc2ccccc2)c(Sc2cccc3ccccc23)c1C1CC1`, the EC50 was found to be 24500 nM.

As for `Cc1ccnc2c1NC(=O)c1cccnc1N2C1CC1` [NEVIRAPINE], the EC50 is 7040 nM.

Take `Cc1cn([C@H]2C[C@H](N=[N+]=[N-])[C@@H](CO)O2)c(=O)[nH]c1=O` [ZIDOVUDINE]: the EC50 stood at 20 nM.

System in the next data set: not listed separately
The data set is described as follows: Selectivity index, ratio of CC50 for cytotoxicity against human MT4 cells to EC50 for antiviral activity against wild type HIV1 IIIB infected in human MT4 cells. The settings on record: read-out: Ratio CC50/EC50. Type of data set: toxicity, cell-based.
On to `O=c1[nH]c(=O)n(COCc2ccccc2)c(Sc2cccc(F)c2)c1C1CC1`, for which the selectivity ratio worked out at 1520.

On to `O=c1[nH]c(=O)n(COCc2ccccc2)c(Sc2ccccc2Cl)c1C1CC1`, for which the selectivity ratio was 515.

For the compound `O=c1[nH]c(=O)n(COCc2ccccc2)c(Sc2c(F)cccc2F)c1C1CC1`, the selectivity ratio stood at 89.

In the case of `COc1ccc(Sc2c(C3CC3)c(=O)[nH]c(=O)n2COCc2ccccc2)c(OC)c1`, the selectivity ratio is under 1.

Regarding `CC(C)c1c(Sc2cccc3ccccc23)n(COCc2ccccc2)c(=O)[nH]c1=O`, the selectivity ratio turned out to be 565.

`COc1cc(OC)cc(Sc2c(C3CC3)c(=O)[nH]c(=O)n2COCc2ccccc2)c1`: the selectivity ratio stood at 38.

With `O=c1[nH]c(=O)n(COCc2ccccc2)c(Sc2cccc3ccccc23)c1C1CC1`, the selectivity ratio was 36.

On to `Cc1c(Sc2ccccc2)n(COCCO)c(=O)[nH]c1=O` [HEPT], for which the selectivity ratio worked out at 106.

For `Cc1cn([C@H]2C[C@H](N=[N+]=[N-])[C@@H](CO)O2)c(=O)[nH]c1=O` [ZIDOVUDINE], the selectivity ratio is over 309.

By EC50 is commonly meant the midpoint of the concentration-response curve. In general, IC50 refers to the point on the concentration scale where inhibition reaches its midpoint. The CC50 is the concentration giving 50% cytotoxicity.
